Measured values taken from PubChem BioAssay AID179 (DTP/NCI, 2004).
Where “and” joins values, the source holds several entries; their conditions need not be identical. Identical values can stand only once. Calls of active or inactive are those of the source.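 The calls were made as follows: active = compounds giving half or more protection of infected cells from virus-caused growth loss, again on retest; inactive = the rest.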

System: CEM cells HIV-1 protection, formazan growth assay
Assay: NCI AIDS Antiviral Assay
Conditions: for IC50: measured here: growth of uninfected CEM cells
Procedure, shortened: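 Soluble formazan readout of cell growth; CEM cells ± HIV-1; 5 drug concs. ≥50% protection → retest; ≥50% again = moderately active; reproducible 100% = confirmed active.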

Row | Structure (SMILES) | EC50 | IC50 | outcome
1 | O=C1c2ccccc2Sc2ccccc2N1CCCCCN1CCN(c2ccc(F)cc2)CC1 | > 200 µM | 8.91 µM | –
2 | COc1ccccc1N1C(=O)CSC1c1c[nH]c2ccccc12 (stereo unspecified) | > 288 µM | 186 µM | –
3 | CC1(C)O[C@@H]2[C@@H](COC(=O)c3ccccc3)C[C@@H](C#N)[C@@H]2O1 | > 200 µM | > 200 µM | –
4 | C[Si](C)(C)C(CCCCSc1ccccc1)(Sc1ccccc1)Sc1ccccc1 | – | – | inactive
5 | COc1ccc2c(OC)c3ccoc3nc2c1O | > 50.1 µM | 32.4 µM | –
6 | CC1(C)C=C(/C=N/Nc2ccc([N+](=O)[O-])cc2)C(C#N)=C(O)C1(C#N)C#N | > 200 µM | 53.7 µM | –
7 | CC1OC(n2cc(F)c(=O)[nH]c2=O)C=CC1=O (stereo unspecified) | > 1050 µM | 14.1 µM | –
8 | CCC(=O)C(C(C)/C=C/CCSc1ccccc1)C(O)CCCCCC(=O)OC (stereo unspecified) | > 200 µM | 36.3 µM | –
9 | c1cc2n(n1)CCN2 | > 2290 µM | 170 µM | –
10 | CCCCCCCCCCCCCCCCOC[C@@H](COC1OC(CO)C(O)C(O)C1O)OCCCCCCCCCCCCCCCC (stereo partly specified) | > 4.07 µM | > 4.07 µM | –
11 | COC(=O)/C(=N\NC(N)=S)C(C(=O)OC)C(=O)C(=O)Nc1ccc(C)cc1 (stereo unspecified) | > 66.1 µM | > 66.1 µM | –
12 | COC1/C=C/OC2(C)Oc3c(C)c(O)c4c(O)c(cc(OCC(=O)N(C)C5CCCCC5)c4c3C2=O)NC(=O)/C(C)=C/C=C/C(C)C(O)C(C)C(O)C(C)C(OC(C)=O)C1C (stereo unspecified) | > 200 µM | 12.3 µM | –
13 | CC1(C)NC(=O)[C@]2(C[C@@H](O)C=C2CO)O1 | > 200 µM | > 200 µM | –
14 | COc1ccc(/C=C2/CCS(=O)(=O)c3ccc(C)cc3C2=O)cc1OC | > 200 µM | 6.03 µM | –
15 | O=C(NCCCCCCCN1CCCCCCC1)C(C1CCCCC1)C1CCCCC1 | > 200 µM | 10.7 µM | –
16 | COC(=O)c1ccccc1C1CN=NC12Cc1ccccc1C2=O (stereo unspecified) | > 200 µM | 120 µM | –
17 | CN=C(NC#N)NCCSCc1nc[nH]c1C | > 389 µM | > 389 µM | –
18 | CC1(C)C(C#N)C(=O)N=C(N)C1C(N)=O (stereo unspecified) | > 200 µM | > 200 µM | –
19 | NC(=O)N/N=C/C(/C=N/NC(N)=O)[N+](=O)[O-] | > 112 µM | > 112 µM | –
20 | CCCCN1CC(=O)N2CCCC(c3ccccc3)N2C(=O)C1 (stereo unspecified) | > 794 µM | 347 µM | –
21 | O=C(O)c1ccc(NC(=O)C2C(=O)C(=O)N(c3ccc(C(=O)O)cc3)C2=O)cc1 (stereo unspecified) | > 47.9 µM | > 47.9 µM | –
22 | CCOC(=O)C(Cc1c[nH]c2ccc(N)cc12)(NC(C)=O)C(=O)OCC | > 200 µM | > 200 µM | –

Row | Structure (SMILES) | EC50 | IC50 | outcome
23 | N#C/C(=C\n1c(=S)[nH]c2ccccc21)c1nc2ccccc2s1 | > 200 µM | > 200 µM | –
24 | Cc1cc(C)c2c(c1)C/C(=C\c1cccc(C)c1C(=O)O)C2=O | > 200 µM | 129 µM | –
25 | CC(=O)OC(C)(C)/C=C/C(=O)[C@](C)(O)[C@H]1[C@H](O)C[C@@]2(C)[C@@H]3CC=C4[C@@H](C=C(OC5OC(CO)C(O)C(O)C5O)C(=O)C4(C)C)[C@]3(C)C(=O)C[C@]12C (stereo partly specified) | > 200 µM | 9.77 µM | –
26 | Cc1cc(/C=C/c2cc[n+](C)c3ccccc23)c(O)c2ncccc12 | > 398 µM | 0.759 µM | –
27 | S=C1NC(c2cccs2)N2C(=S)NC(c3cccs3)N12 (stereo unspecified) | > 200 µM | > 200 µM | –
28 | CCCc1cc(=O)oc2c3c(ccc12)OC(C)(C)[C@H](OC(=O)C12CCC(C)(C(=O)O1)C2(C)C)[C@@H]3OC(=O)C12CCC(C)(C(=O)O1)C2(C)C (stereo partly specified) | 0.891 µM | > 200 µM | –
29 | CCOC(=O)c1c(C)cc(=O)n2c1[nH]c1ccccc12 | > 200 µM | 151 µM | –
30 | CC1=C(CO)C(=O)OC(C(C)C2CCC3C4CC5OC56C(O)C(N5CC5)=CC(=O)C6(C)C4CCC23C)C1 (stereo unspecified) | – | – | inactive
31 | [C-]#[N+][C@@H]1C2C([C@@]3(C)CCC(C(C)(C)[N+]#[C-])O3)CC[C@](C)([N+]#[C-])[C@H]2CC[C@@]1(C)O (stereo partly specified) | – | – | inactive
32 | C=C1c2cc3c(cc2CC12Cc1cc4c(cc1C2=O)CCC4)CCC3 (stereo unspecified) | > 200 µM | > 200 µM | –
33 | N#CNC(N)=Nc1ccc(Cl)cc1 | – | – | inactive
34 | C[C@@H]1c2ccc3c(c2C2(O)C[C@H]4CCC1N2C4)CC1[C@H]3C[C@@H](O)C2C[C@@H](O)CC[C@@]21C (stereo partly specified) | > 30.9 µM | > 30.9 µM | –
35 | Cn1c(C2CC(C)(C)c3c2c2ccccc2n3C)cc2ccccc21 (stereo unspecified) | > 21.9 µM | > 21.9 µM | –
36 | [CH3][Sn]1([CH3])[O]C(=O)CCN=Cc2c(ccc3ccccc23)[O][Sn]([CH3])([CH3])[O]C(=O)CCN=Cc2c(ccc3ccccc23)[O]1 | > 200 µM | 20 µM | –
37 | CC1=C2CCCCCC2(O)OC1=O (stereo unspecified) | > 646 µM | > 646 µM | –
38 | COC(=O)Cc1cccc2c1CCC2=O | > 200 µM | > 200 µM | –
39 | Cc1cccc(C)c1NC(=O)CCCC(=O)C(C#N)c1ccccc1 (stereo unspecified) | > 741 µM | > 741 µM | –
40 | C/C(=N/OC(=O)N(C)C)c1ccc(Cl)cc1Cl | > 200 µM | 105 µM | –
41 | CNC(=O)OC(C)CN1c2ccccc2Sc2ccccc21 (stereo unspecified) | > 200 µM | 41.7 µM | –
42 | COc1cccc(C2c3cc4c(cc3OC(NNC(N)=O)C2C)OCO4)c1OC (stereo unspecified) | > 200 µM | 8.13 µM | –
43 | Cc1cccc2c1C(=O)N(CC[P+](c1ccccc1)(c1ccccc1)c1ccccc1)C2=O | > 200 µM | 7.94 µM | –
44 | Cc1cccc(/C=C(\C#N)C(=O)c2ccccc2)c1 | > 363 µM | 178 µM | –

Row | Structure (SMILES) | EC50 | IC50 | outcome
45 | Nc1nc(N)c(CCCc2ccccc2)c(N)n1 | – | – | inactive
46 | O=c1c(-c2cccc(O)c2)coc2cc(O)c(O)cc12 | > 200 µM | 10.5 µM | –
47 | COc1ccccc1/C=C1\Sc2scc(-c3cccc([N+](=O)[O-])c3)[n+]2C1=O | – | – | inactive
48 | COC(=O)N/N=C(\C(=O)Nc1cccc([N+](=O)[O-])c1)c1nc2ccc([N+](=O)[O-])cc2[nH]c1=O | > 148 µM | > 148 µM | –
49 | Cc1ccc(S(=O)(=O)N2CCN(CCO)CCN(S(=O)(=O)c3ccc(C)cc3)CCN(CCO)CC2)cc1 | > 200 µM | 34.7 µM | –
50 | CC(C)(C)OC(=O)N1CCCCC(CCCC#Cc2ccccc2)C1=O (stereo unspecified) | > 38 µM | > 38 µM | –
51 | Cc1ccc(C(=O)O)c(CC2Cc3c(C)cccc3C2=O)c1 (stereo unspecified) | > 200 µM | 155 µM | –
52 | CC1(C)C2CC(O)C1(C)CC2=O (stereo unspecified) | > 200 µM | 170 µM | –
53 | COc1ccccc1C1=Nc2ccccc2N=C(c2ccccc2O)C1 | > 200 µM | 93.3 µM | –
54 | C#CC1(O)CCC2C3CCC4=Cc5oncc5CC4(C)C3CCC21C (stereo unspecified) | > 200 µM | 39.8 µM | –
55 | N#CCN1CCN(CC#N)CCN(CC#N)CCN(CC#N)CC1 | > 200 µM | 28.2 µM | –
56 | CC(C)(C)[Si](C)(C)OCC1OC(n2cnc3c(N)ncnc32)C(O[Si](C)(C)C(C)(C)C)C1O[Si](C)(C)C(C)(C)C (stereo unspecified) | > 200 µM | 44.7 µM | –
57 | CCN1CCC(O)(/C=C/c2ccccc2)C(C(=O)/C=C/c2ccccc2)C1 (stereo unspecified) | – | – | inactive
58 | CSc1nc(C)cc(Nc2ccc(O)c(CN3CCOCC3)c2)n1 | > 24 µM | > 24 µM | –
59 | CC(=O)OC[C@@H](COC(=O)/C=C/c1ccc(O)cc1)OC1OC(CO)C(O)C(O)C1O (stereo partly specified) | – | – | inactive
60 | Cc1ccc(NNc2cc(=O)[nH]c(=O)[nH]2)cc1Cl | > 200 µM | 4.68 µM | –
61 | Clc1ccc(Nc2nc3ccccc3nc2-c2cccs2)cc1Cl | > 14.1 µM | > 14.1 µM | –
62 | C=CC[C@]1(C(C)Cc2ccc(OC)c(OC)c2)C[C@@H](OC)C=CC1=O (stereo partly specified) | > 10 µM | 2.88 µM | –
63 | CC(=O)OC(OC(C)=O)c1ncccc1C(=O)OC(C)C | > 851 µM | 112 µM | –
64 | CCCCCCCCOC1OC(COC(C)=O)C(OC(C)=O)C(OC(C)=O)C1OC(C)=O (stereo unspecified) | > 100 µM | > 100 µM and 95.5 µM | –
65 | CCOC(=O)c1ccc(N2CN3c4ccccc4CCC3C2c2c[nH]c(=O)[nH]c2=O)cc1 (stereo unspecified) | > 69.2 µM | > 69.2 µM | –
66 | O=C1c2c(O)ccc(O)c2C(=O)c2c(NCCCO)ccc(NCCCO)c21 | 13.5 µM | 18.6 µM | –

Row | Structure (SMILES) | EC50 | IC50 | outcome
67 | O=c1[nH]nc(Cc2ccccc2)n1C1CC1 | > 200 µM | > 200 µM | –
68 | O=C1C(c2c[nH]c3ccccc23)=Nc2ccc(Br)cc21 | > 20 µM | 5.89 µM | –
69 | O=C(CSc1ncn[nH]1)C[P+](c1ccccc1)(c1ccccc1)c1ccccc1 | – | – | inactive
70 | CCC(C#N)NCc1ccc(CNC(C#N)CC)cc1 (stereo unspecified) | > 200 µM | > 200 µM | –
71 | CN1C(=O)C2(Nc3ccccc3N2)c2ccccc21 | > 70.8 µM | > 70.8 µM | –
72 | CSC1NC(c2ccc(Cl)cc2)=C(C#N)C(=O)N1C1OCC(OC(C)=O)C(OC(C)=O)C1OC(C)=O (stereo unspecified) | > 200 µM | 30.9 µM | –
73 | CC(C#N)(NO)C(C)(C#N)NO (stereo unspecified) | > 200 µM | > 200 µM | –
74 | C[n+]1cc2c3c(ccc2c2ccc4cc5c(cc4c21)OCO5)OCO3 | > 1.58 µM | 0.288 µM | –
75 | COCn1c2ccc(OC(C)=O)cc2c2c(=O)oc(C)nc21 | > 200 µM | 170 µM | –
76 | O=c1cc(NNc2ccccc2)[nH]c(=S)[nH]1 | > 200 µM | 12.3 µM | –
77 | CC1(c2ccc(F)cc2)OC(=O)c2c1ccc1ccccc21 (stereo unspecified) | – | – | inactive
78 | Clc1ccccc1CSc1ccc2nncc(SCc3ccccc3Cl)c2c1 | > 34.7 µM | > 34.7 µM | –
79 | Cn1c(=O)n(-c2c3ccccc3c(Cl)c3ccccc23)n(C(C)(C)C)c1=O | > 100 µM | > 100 µM | –
80 | COC(=O)C(C([CH-][N+](=O)[O-])c1ccccc1)[P+](c1ccccc1)(c1ccccc1)c1ccccc1 (stereo unspecified) | > 200 µM | 10.7 µM | –
81 | O=S(=O)(OC1CC12CCCCC2c1ccccc1)c1ccccc1 (stereo unspecified) | > 200 µM | > 200 µM | –
82 | COc1cccc(C(NC2=NCCC=N2)c2cc3c(cc2O)OCO3)c1O (stereo unspecified) | > 200 µM | 35.5 µM | –
83 | CC1(C)OCC[C@@H]1[Si](C)(C)C | – | – | inactive
84 | COc1cccc2c1C(=O)c1c(O)c3c(c(O)c1C2=O)C[C@@](O)(C(C)=O)C[C@@H]3OC1CC(O)C(O)C(C)O1 (stereo partly specified) | > 0.2 µM | 0.0107 µM | –
85 | COc1cccc(C2c3cc4c(cc3OC(Nc3ccccc3)C2C)OCO4)c1O (stereo unspecified) | > 200 µM | 3.55 µM | –
86 | COc1cc2c(c(C(C)(C)C)c1)OC1(O)C2=CC(=O)C=C1C(C)(C)C (stereo unspecified) | > 20 µM | 0.372 µM | –
